Laboratory results as given in patent US10017535B2, “Amphiphilic compounds with neuroprotective properties” (USTAV ORGANICKE CHEMIE A BIOCHEMIE AV CR, v.v.i., priority 2014, dated 2018).
Read-outs that look alike come from different tables or passages of the source.

What was measured:
[1] = molecular target: T1, NR1-1a/NR2B NMDA receptor (Rattus norvegicus, UniProt P35439+Q00960); test: Patch-clamp inhibition of glutamate-evoked currents at recombinant NMDA receptors in transfected HEK293 cells; type: cell-based; settings: for IC50: calculated from relative steroid-induced inhibition, Hill's coefficient 1.2, read-out: IC50
T1 construct: expressed in transfected cells; host or cells: HEK293 cells (ATCC CRL1573)
T1 sequence (Q00960 27-1482, other chains not shown): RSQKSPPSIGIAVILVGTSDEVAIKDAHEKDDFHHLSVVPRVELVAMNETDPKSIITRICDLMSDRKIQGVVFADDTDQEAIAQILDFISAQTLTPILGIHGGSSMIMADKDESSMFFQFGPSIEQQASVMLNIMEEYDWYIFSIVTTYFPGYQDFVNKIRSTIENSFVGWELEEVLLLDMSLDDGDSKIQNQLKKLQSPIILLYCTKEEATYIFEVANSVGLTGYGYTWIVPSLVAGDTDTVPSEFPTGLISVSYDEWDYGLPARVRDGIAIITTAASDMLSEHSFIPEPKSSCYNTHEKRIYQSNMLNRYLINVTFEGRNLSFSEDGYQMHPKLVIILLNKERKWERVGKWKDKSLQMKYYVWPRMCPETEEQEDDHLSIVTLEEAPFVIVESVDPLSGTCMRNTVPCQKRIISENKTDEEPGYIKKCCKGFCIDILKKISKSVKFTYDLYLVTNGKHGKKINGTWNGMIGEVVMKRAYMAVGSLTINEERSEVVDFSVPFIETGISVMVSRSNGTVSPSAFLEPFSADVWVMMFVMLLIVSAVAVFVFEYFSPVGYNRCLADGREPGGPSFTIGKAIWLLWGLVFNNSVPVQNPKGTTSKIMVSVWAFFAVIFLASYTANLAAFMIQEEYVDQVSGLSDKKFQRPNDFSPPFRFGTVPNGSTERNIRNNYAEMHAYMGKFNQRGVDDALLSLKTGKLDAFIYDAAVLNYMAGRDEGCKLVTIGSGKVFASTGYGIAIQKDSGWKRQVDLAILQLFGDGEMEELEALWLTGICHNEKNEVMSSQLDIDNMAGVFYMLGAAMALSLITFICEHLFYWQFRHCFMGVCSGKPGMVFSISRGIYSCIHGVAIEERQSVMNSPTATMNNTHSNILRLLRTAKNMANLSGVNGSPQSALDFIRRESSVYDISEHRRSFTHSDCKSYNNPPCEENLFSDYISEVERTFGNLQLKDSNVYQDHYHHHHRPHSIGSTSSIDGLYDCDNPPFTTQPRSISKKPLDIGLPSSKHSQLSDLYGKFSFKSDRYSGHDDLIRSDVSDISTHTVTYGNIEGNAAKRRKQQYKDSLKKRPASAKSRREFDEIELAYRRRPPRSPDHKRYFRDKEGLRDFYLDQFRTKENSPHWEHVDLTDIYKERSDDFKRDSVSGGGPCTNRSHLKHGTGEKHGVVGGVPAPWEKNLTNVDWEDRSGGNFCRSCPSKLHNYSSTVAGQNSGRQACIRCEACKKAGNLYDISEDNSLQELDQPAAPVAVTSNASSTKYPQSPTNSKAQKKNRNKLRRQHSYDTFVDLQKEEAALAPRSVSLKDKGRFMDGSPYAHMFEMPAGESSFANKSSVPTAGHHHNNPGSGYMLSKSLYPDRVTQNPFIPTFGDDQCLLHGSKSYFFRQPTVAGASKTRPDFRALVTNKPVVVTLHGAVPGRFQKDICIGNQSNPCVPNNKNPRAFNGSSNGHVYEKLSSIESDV
Summary of the method: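 HEK293 cells co-transfected with rat NR1-1a/NR2B plus GFP were whole-cell patch-clamped 16-40 h post-transfection at −60 mV. Currents were evoked by 1 mmol·l^−1 glutamate with 10 μmol·l^−1 glycine in ECS pH 7.3, and steroid was co-applied in DMSO via fast perfusion. IC50 came from relative inhibition.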

[2] = molecular target: T1, NR1-1a/NR2B NMDA receptor; settings: 100 μmol·l^−1 pregnanolone sulfate, recombinant NR1/NR2B receptors, n=5, cited from earlier work
[3] = tested on: NMDA receptors on hipocampal neurones; settings: 100 μmol·l^−1 pregnanolone sulfate, responses to 100 μmol·l^−1 NMDA, n=5; cited from earlier work
[4] = tested on: laboratory mice, strain CD-1; type: in vivo; settings: intraperitoneally, 1 mg/kg; also: key: −: the desired effect was not observed; −/+: the desired effect was insufficient; +: the desired effect was observed
Protocol: (§1) In the Experimental Part 1 were used adults (30-35 g) male laboratory mice, strain CD-1 from Velaz facility, Czech Republic. Mice were housed in plastic boxes with a 12-hour light cycle (lights on at 7:00 pm). Mice had free access to food and water.
Thus there were prepared solutions of the four steroids for application rates of 0.1, 1, 10 and 100 mg/kg.
Laboratory mouse was chosen as a model organism for this experiment. The following experiments were performed as described in Front Behay. Neurosci.
The purpose of the primary behavioral testing was quickly determined the effect of compounds on CNS dependent functions and any signs of toxicity. A simplified modification Irwin test was selected with respect to the behavioral profile of NMDA receptor antagonists. Mice were tested individually. The study drug was administered intraperitoneally (Table 3) at a dose of 1 mg/kg. The control group consisted of individuals that received the CDX solution or saline.

[5] = tested on: laboratory mice, strain CD-1; test: Open field test (locomotor activity, sedative effect); as to Open Field Test No Evidence of Hyperlocomotion: key: −: the desired effect was not observed; −/+: the desired effect was insufficient; +: the desired effect was observed; as to Sedative Effect The Rapid Onset of Sedation at a Dose of 100 mg/kg: key: −: the desired effect was not observed; −/+: the desired effect was insufficient; +: the desired effect was observed; type: in vivo; settings: for pathway in open field: dose 10 and 100 mg/kg, vs intact mice; for locomotor activity over time: higher dose of 10 resp. 100 mg/kg; for Open Field Test No Evidence of Hyperlocomotion / Sedative Effect The Rapid Onset of Sedation at a Dose of 100 mg/kg: intraperitoneally; for Open Field Test No Evidence of Hyperlocomotion: 0.1-100 mg/kg; for hyperlocomotion in open field: lower doses (below 10 mg/kg)
Protocol: as §1
Amphiphilic steroid compounds were dissolved in a solution of 3 g (2-hydroxypropyl)-β-cyclodextrin (CDX, Sigma-Aldrich) and 157 mg of citric acid ([…], Sigma-Aldrich) in 30 ml of distilled water, the pH was adjusted to 7.4 using sodium hydroxide (NaOH, Sigma-Aldrich). Thus there were prepared solutions of the four steroids for application rates of 0.1, 1, 10 and 100 mg/kg.
The efficacy of the studied compounds was compared to known NMDA antagonist is memantine (Sigma-Aldrich) at a dose of 5 mg/kg in rats, ketamine (Vétoquinol) at 10 mg/kg and dizocilpine (MK-801) (Sigma-Aldrich) at a dose of 0.3 mg/kg in mice. These three compounds were dissolved in saline (B Braun).
The substances at dose 0.1-100 mg/kg were administered before the test to mice intraperitoneally. As controls were used intact mice and mice that received CDX solution. Also, MK-801 (0.3 mg/kg) was used for comparison of effects of noncompetitive antagonist of NMDA receptors. From the experiment was evaluated overall track anywhere in the arena as an indicator of locomotor activity. In addition, it was judged a ten-minute segments track during each experiment. Based on these values, it was possible to determine the latency time of onset of action and changes in locomotor activity over time.
In this arrangement, the sedative effect of the studied compounds at the highest dose was evaluated. […] Over time was monitored locomotor activity and possible changes characterized by tremor, ataxia, restlessness, or sedation or general anesthesia (absence of response to stimuli, decreased muscle tone).

[6] = tested on: laboratory mice, strain CD-1; test: Passive avoidance test (aversive motivated memory); type: in vivo
Protocol: as §1
Aversive motivated memory test was evaluated on the basis of latency input into the preferred, but unpleasant sensation associated with delivery device.

[7] = tested on: NMDA lesion of the dorsal hippocampus in rats; test: Active allothetic place avoidance (AAPA) after bilateral excitotoxic NMDA lesion of dorsal hippocampus; type: in vivo, rat Long-Evans strain; settings: 1 mg/kg after surgery, vs NMDA group
Protocol: In the Experimental Part 2 were used adult (3 months old, 300-400 g) male rat Long-Evans strain. The animals come from herds Institute of Physiology ASCR. The rats were housed in clear plastic boxes with the same light cycle as in mice. Animals had free access to food and water. All experiments were carried out in the light of clay. All experiments were carried out in accordance with the Law on protection of animals against cruelty.
The anesthetized rats were used in operations isoflurane (3.5%, Baxter). To recall excitotoxic lesion of the dorsal hippocampus was applied 0.05 mol·l^−1 solution of NMDA (Sigma-Aldrich) in 0.4 mol·l^−1 phosphate buffer solution prepared by mixing 356 g Na2HPO4.12H2O (Mw358.14) in 4.2 l of distilled water and a solution of 62.4 g NaHPO4. 2H2O (Mw156.01) in 0.8 l of distilled water. The pH of the resulting solution of NMDA was adjusted to 7.4 with NaOH.
In this experiment, the neuroprotective effects were evaluated for amphiphilic steroid compounds. The procedure was performed according to Neuropharmacology 61, 61-68 (2011)
The rats were randomly divided into eleven groups. The control group included operated animals, which were injected by phosphate buffer […] into the hippocampus. In the second group, the animals had NMDA lesions of the hippocampus. The animals of the third group were applied clinically used NMDA antagonist memantine at a dose of 5 mg/kg after NMDA lesion. The other groups were administered the compounds at a dose of 1 mg/kg.
The test was performed in rotating arena with prohibited sector in the form of a circular sector (60°). If the rat entered the sector, its limbs received weak electrical impulse.
Test memory and spatial cognition in rats using AAPA was evaluated over four sessions, which are in healthy rats sufficient to achieve asymptotic level (Behay. Brain. Res. 189, 139-144 (2008)). To evaluate memory and spatial cognition was used data from the fourth session, and the number of entries into the forbidden sector and the maximum avoidance sector. […] After the experiment, the localization of the lesion was histologically verified.
Data were analyzed using the non parametric test of Maim Whitney criteria using the GraphPad. The difference was considered significant for p<0.05, for a non-significant tendency then for 0.05<p<0.075.

[8] = tested on: laboratory mice, strain CD-1; test: Forced swimming test (antidepressant effect); type: in vivo; also: key: −: the desired effect was not observed; −/+: the desired effect was insufficient; +: the desired effect was observed
Protocol: as §1
This assay was used to monitor the antidepressant effect. Animals float 6 minutes in acrylic cylinder in water at 24° C. A period of immobility is evaluated. The reduction is a manifestation of anti-depressant properties of drugs.

For “5beta-pregnanolon-3alpha-yl 3-sulfate [3alfa,5beta-Pregnanolone sulfate]”, the IC50 [1] is listed as 55 µM, the “mean inhibition effect (Mean % change ± SD)” value ([2]; listed as 5beta-pregnanolon-3alpha-yl 3-sulfate) is listed as 67% and the “mean inhibition effect (Mean % change ± SD)” value ([2]; listed as pregnanolone sulfate) is listed as 67.2±8.2%. For the same compound, the mean inhibition effect [3] was 71.3±5.0%.
With C=C1CC[C@H]2[C@@H]3CC[C@@H]4C[C@H](OC(=O)CCC(=O)O)CC[C@]4(C)[C@H]3CC[C@]12C [Compound 68, 4-(((3R,5R,8R,9S,10S,13S,14S)-10,13-Dimethyl-17-methylenhexadecahydro-1H-cyclopenta[a]phenanthren-3-yl)oxy)-4-oxobutanoic acid] the inhibition at 5 µM ([1]; HEK293, read-out: Mean % change ± SD) was 24.2 ± 14.3%, the IC50 [1] was 18.8 µM and the “Behavioural Test No Evidence of Toxicity” value [4] was “+”. The “pathway in open field” value [5] was “significant reduction”, the “locomotor activity over time” value [5] was “significant decrease” and the “Open Field Test No Evidence of Hyperlocomotion” value (“Open Field Test No Evidence” below) [5] was “+”. For the same compound, the “Sedative Effect The Rapid Onset of Sedation at a Dose of 100 mg/kg” value (“Sedative Effect The Rapid Onset” for short) [5] was “+”, the “hyperlocomotion in open field” value [5] was “not (unlike groups with dizocilpine) observed hyperlocomotion” and the “Passive Avoidance Test No Memory Violation” value [6] was “+”. The “maximum time avoiding the sector, fourth session of AAPA” value (from here on “maximum time avoiding the sector”) [7] was “tendency to increase” and the “number of entries into the forbidden sector, fourth session of AAPA” value (“number” for short) [7] was “reduced number of entries”.
In the case of C[C@H]1CC[C@H]2[C@@H]3CC[C@@H]4C[C@H](OC(=O)[C@@H](N)CCC(=O)O)CC[C@]4(C)[C@H]3CC[C@]12C [Compound 81, (4S)-4-Amino-5-oxo-5-(((3R,5R,8S,9S,10S,13R,14S,17S)-10,13,17-trimethylhexadecahydro-1H-cyclopenta[a]phenanthren-3-yl)oxy)pentanoic acid], the “Behavioural Test No Evidence of Toxicity” value [4] is reported as “+”, the “pathway in open field” value [5] is reported as “significant reduction” and the “locomotor activity over time” value [5] is reported as “significant decrease”. For the same compound, the “Open Field Test No Evidence” value [5] was “+”, the “Sedative Effect The Rapid Onset” value [5] was “+” and the “hyperlocomotion in open field” value [5] was “not (unlike groups with dizocilpine) observed hyperlocomotion”. The “Forced Swimming Test Reduced Floating” value [8] was “−”, the “Passive Avoidance Test No Memory Violation” value [6] was “+” and the “maximum time avoiding the sector” value [7] was “tendency to increase”. For the same compound, the “number” value [7] was “reduced number of entries”.
For C/C=C1/CC[C@H]2[C@@H]3CC[C@@H]4C[C@H](OC(=O)CCC(=O)O)CC[C@]4(C)[C@H]3CC[C@]12C [Compound 84, 4-(((3R,5R,8R,9S,10S,13S,14S,Z)-17-Ethylidene-10,13-dimethylhexadecahydro-1H-cyclopenta[a]phenanthren-3-yl)oxy)-4-oxobutanoic acid], the “Behavioural Test No Evidence of Toxicity” value [4] was “+”, the “pathway in open field” value [5] was “significant reduction” and the “locomotor activity over time” value [5] was “significant decrease”. The “Open Field Test No Evidence” value [5] was “+”, the “Sedative Effect The Rapid Onset” value [5] was “+” and the “hyperlocomotion in open field” value [5] was “not (unlike groups with dizocilpine) observed hyperlocomotion”. The “Passive Avoidance Test No Memory Violation” value [6] was “−/+”, the “memory impairment in the passive avoidance test” value ([6]; 1 mg/kg) was “Mild memory impairment” and the “maximum time avoiding the sector” value [7] was “tendency to increase”. For the same compound, the “number” value [7] was “reduced number of entries”.
